Assay results taken from article PMC9329436, “Optimization of the 4-anilinoquin(az)oline scaffold as epidermal growth factor receptor (EGFR) inhibitors for chordoma utilizing a toxicology profiling assay platform” (Scientific Reports, 2022).

Tested on: HL60 cells
Assay: AsedaSciences SYSTEMETRIC Cell Health Screen (flow cytometry toxicity profiling)
Conditions: HL60, 4 h, 5 nM–100 µM; for CC: Cell Cycle score / CM: Cell morphology score / CMI: Cell membrane integrity score / GSH: Glutathione score / MMP: Mitochondrial membrane depolarization score / NMI1: Nuclear membrane integrity 1 score / NMI2: Nuclear membrane integrity 2 score / ROS: Reactive superoxide species score: probability 0–1, n = 2; for CHI: Cell Health Index: probability (0–1) of high-risk class, n = 2
Description: To prioritize further optimization, in addition to cellular potency, we utilized the AsedaSciences® […]® Cell Health Screen. This live cell flow cytometry (FC) screen was developed to assess human safety risk for candidate pharmaceutical small molecules at the early hit-to-lead stage of development. The screen works by estimating the risk using a supervised machine learning (ML) classifier to assess a multiparametric cellular stress phenotype, produced by the test compound, relative to a training set of known compounds (Table S1). This screen has been designed for early pipeline risk estimation regardless of pharmaceutical class/disease type, so it uses HL60 as the reporter cell line.
The ML classifier was trained with 300 historically known compounds (on market or withdrawn drugs, research compounds, etc.), which were divided into two outcome classes based upon literature, clinical trials, and market histories where applicable. This external curation informed an outcome of “high-risk” or “low-risk”. All 300 compounds were also processed through the automated FC screen, populating each of the two classes with frequency distributions of empirical cell-based phenotypes.
To estimate human safety risk for an unknown compound, the ML classifier assesses the similarity of the test compound’s cell-based phenotype to the distributions of phenotypes in the two outcome classes. […] Phenotypes are derived from twelve FC detection parameters, including light scatter and a series of fluorescent physiological reporter dyes, that track cell stress-related endpoints.
To produce the Cell Health Index, the ML classifier uses all twelve FC parameters simultaneously in a multidimensional logistic regression model, so the CHI contains the most predictive power. In addition to the Cell Health Index, Table 4 also reports probability scores for eight cell stress-related endpoints. These scores are produced individually by passing information to the ML classifier relating to parameters that inform that endpoint. For example, to produce the cell morphology (CM) score, the ML classifier only uses the FC detection parameters for forward scatter (informing change in cell diameter) and side scatter (informing change in optical granularity of the cell) to inform the model. Together, these eight endpoints provide a “biological fingerprint”, allowing assessment of the degree to which SAR series members behave differently across endpoints.
In a 384-well platform, HL60 cells were exposed to a 10-step, 3 × dilution series of each test compound (5 nM–100 µM) for 4 h at 37 °C with 5% CO2. Each dilution series was screened in duplicate, occupying a total of 20 wells, allowing 16 test compounds to be assayed per plate. Each row contained one positive and one negative control well, for a total of 16 replicate positive/negative control pairs on each assay plate. Compound formatting, cell deposition, and dye application were performed robotically so that final assay conditions comprised 100,000 cells in a 40 µL volume. After the 4 h compound exposure, cells were immediately stained with a panel of fluorescent dyes that report physiological signatures of both mitochondrial dysfunction and gross cell stress. Fluorescence and forward/side-scatter data were collected using automated FC with no gating. FC data are processed by an automated algorithm for producing quality control measures and ML classification of compound phenotypes. • 2. HL60 cell culture production
HL60 cells were produced as suspension cultures in glass 850 cm^2 roller bottles with vented caps, at 1 RPM, 5% CO2, and 37 °C. […] Culture density was maintained at or below 1 × 10^6 cells/mL.

CS(=O)(=O)CCNCc1ccc(-c2ccc3ncnc(Nc4ccc(OCc5cccc(F)c5)c(Cl)c4)c3c2)o1 [Lapatinib, reference compound]
CC: Cell Cycle score: 0.93
CM: Cell morphology score: 1.00
CMI: Cell membrane integrity score: 1.00
GSH: Glutathione score: 0.96
MMP: Mitochondrial membrane depolarization score: 1.00
NMI1: Nuclear membrane integrity 1 score: 0.97
NMI2: Nuclear membrane integrity 2 score: 0.92
ROS: Reactive superoxide species score: 0.90
CHI: Cell Health Index: 0.89

CCOC(=O)N1CCC(=C2c3ccc(Cl)cc3CCc3cccnc32)CC1 [Loratadine, reference compound]
CC: Cell Cycle score: 0.84
CM: Cell morphology score: 0.36
CMI: Cell membrane integrity score: 0.70
MMP: Mitochondrial membrane depolarization score: 0.65
ROS: Reactive superoxide species score: 0.85

CCc1nn(CCCN2CCN(c3cccc(Cl)c3)CC2)c(=O)n1CCOc1ccccc1 [Nefazodone, reference compound]
CC: Cell Cycle score: 0.97
CM: Cell morphology score: 0.97
CMI: Cell membrane integrity score: 1.00
GSH: Glutathione score: 0.99
MMP: Mitochondrial membrane depolarization score: 1.00
NMI1: Nuclear membrane integrity 1 score: 0.73
NMI2: Nuclear membrane integrity 2 score: 0.87
ROS: Reactive superoxide species score: 1.00
CHI: Cell Health Index: 0.78

Cc1ccnc2c1NC(=O)c1cccnc1N2C1CC1 [Nevirapine, reference compound]
CC: Cell Cycle score: 0.070
CM: Cell morphology score: 0.020
CMI: Cell membrane integrity score: 0.050
GSH: Glutathione score: 0.030
MMP: Mitochondrial membrane depolarization score: 0.010
NMI1: Nuclear membrane integrity 1 score: 0.020
NMI2: Nuclear membrane integrity 2 score: 0.040
ROS: Reactive superoxide species score: 0.28
CHI: Cell Health Index: 0.18

CC1(C)NC(=O)N(c2ccc([N+](=O)[O-])c(C(F)(F)F)c2)C1=O [Nilutamide, reference compound]
CC: Cell Cycle score: 0.68
CM: Cell morphology score: 0.040
CMI: Cell membrane integrity score: 0.060
GSH: Glutathione score: 0.040
MMP: Mitochondrial membrane depolarization score: 0.42
NMI1: Nuclear membrane integrity 1 score: 0.21
NMI2: Nuclear membrane integrity 2 score: 0.52
ROS: Reactive superoxide species score: 0.090
CHI: Cell Health Index: 0.34

O=C(O)CCc1nc(-c2ccccc2)c(-c2ccccc2)o1 [Oxaprozin, reference compound]
CC: Cell Cycle score: 0.060
CM: Cell morphology score: 0.00
CMI: Cell membrane integrity score: 0.090
GSH: Glutathione score: 0.030
MMP: Mitochondrial membrane depolarization score: 0.000
NMI1: Nuclear membrane integrity 1 score: 0.040
NMI2: Nuclear membrane integrity 2 score: 0.12
ROS: Reactive superoxide species score: 0.16

[H]/N=C(/N)N/C(=N/[H])NCCc1ccccc1 [Phenformin, reference compound]
CC: Cell Cycle score: 0.28
CM: Cell morphology score: 0.74
CMI: Cell membrane integrity score: 0.27
GSH: Glutathione score: 0.17
MMP: Mitochondrial membrane depolarization score: 0.37
NMI1: Nuclear membrane integrity 1 score: 0.82
NMI2: Nuclear membrane integrity 2 score: 0.080
ROS: Reactive superoxide species score: 0.77
CHI: Cell Health Index: 0.41

Cc1ccc(N(CC2=NCCN2)c2cccc(O)c2)cc1 [Phentolamine, reference compound]
CC: Cell Cycle score: 0.040
CM: Cell morphology score: 0.00
CMI: Cell membrane integrity score: 0.16
GSH: Glutathione score: 0.17
MMP: Mitochondrial membrane depolarization score: 0.29
NMI1: Nuclear membrane integrity 1 score: 0.64
NMI2: Nuclear membrane integrity 2 score: 0.79
ROS: Reactive superoxide species score: 0.11

Cc1ccc(=O)n(-c2ccccc2)c1 [Pirfenidone, reference compound]
CC: Cell Cycle score: 0.060
CM: Cell morphology score: 0.00
CMI: Cell membrane integrity score: 0.090
GSH: Glutathione score: 0.040
MMP: Mitochondrial membrane depolarization score: 0.010
NMI1: Nuclear membrane integrity 1 score: 0.040
NMI2: Nuclear membrane integrity 2 score: 0.030
ROS: Reactive superoxide species score: 0.020
CHI: Cell Health Index: 0.17
